Consider 26 molecules from US10550110B2, “Tetrahydroquinoline sulfonamide derivatives as inverse agonists of retinoid-related orphan receptor gamma (ROR gamma (t))” (GALDERMA RESEARCH & DEVELOPMENT, priority 2014, dated 2020).

Each structure is given as a SMILES string.

In general, IC50 refers to the concentration that inhibits the measured activity by half.

The test addresses T1, ROR gamma ligand-binding domain (LBD) (hRORg) (Homo sapiens, UniProt P51449).
T1 construct: expressed in transfected cells; host or cells: HG5LN (HeLa line with GAL4-responsive luciferase reporter)
T1 sequence (P51449 269-508 limits assumed): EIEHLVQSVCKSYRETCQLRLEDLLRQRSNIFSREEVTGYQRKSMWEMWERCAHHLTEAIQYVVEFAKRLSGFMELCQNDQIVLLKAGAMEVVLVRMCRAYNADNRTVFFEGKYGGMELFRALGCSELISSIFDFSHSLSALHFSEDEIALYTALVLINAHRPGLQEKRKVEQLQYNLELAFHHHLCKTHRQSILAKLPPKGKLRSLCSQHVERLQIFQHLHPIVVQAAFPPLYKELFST
Kind of test: GAL4-RORγ transactivation (luciferase reporter, HG5LN HeLa line). The test is classed as cell-based. The following applies: HG5LN HeLa line with GAL4 DBD fused to ROR gamma LBD, 18 hours incubation. An excerpt: GAL4—RORγ Transactivation
The RORγ transactivation model was developed from the line HG5LN, which is a HeLa line that stably expresses a luciferase reporter gene controlled by a pentamer of the GAL4 recognition domain of yeast and of a β-globin promoter. The HG5LN line was stably transfected by the DNA-binding domain (DBD) of GAL4 fused to the ROR gamma ligand-binding domain (LBD). Molecules that inhibit the ROR gamma constitutive activity reduce the luciferase expression, thus leading to a reduction in the emitted luminescence.
The cells are seeded in 384-well plates (5000 cells in 45 μL/well of culture medium containing 10% fetal calf serum) and incubated for 4 hours at 37° C., 5% CO2. 5 μL of the test molecules (compounds described in the tables described above) are then added to each well and the plates are incubated for 18 hours at a temperature of 37° C. under 5% of CO2. 20 μL of luciferase substrate (Promega) are added to each well and the luminescence emitted is read by a microplate reader.
The luminescence units (“RLU”) are normalized by positive controls (“POS” containing a saturated concentration of N-(2,2,2-trifluoroethyl)-N-[4-[2,2,2-trifluoro-1-hydroxy-1-(trifluoromethyl)ethyl]phenyl])benzenesulfonamide and negative controls (“NEG” containing DMSO): % inhibition=((RLU-NEG)*100)/(POS-NEG). The IC50 values are calculated from a 4-parameter logistic model using the XLFit software (IDBS).
For orientation: In a reporter assay the amount or activity of a reporter protein is the signal.
Molecule `CCc1ccc(N(CC(C)C)S(=O)(=O)c2ccc3c(c2)C(O)CCN3CC2CCC(O)CC2)cc1` (single isomer, unassigned) [Compound 42, 4-hydroxy-1-(4-hydroxycyclohexylmethyl)-1,2,3,4-tetrahydroquinoline-6-sulfonic acid (4-ethylphenyl)isobutylamide] registered an IC50 of 0.1 to 1 µM. Consider `CCc1ccc(N(CC(C)C)S(=O)(=O)c2ccc3c(c2)C(O)CCN3CC2CCC(O)CC2)cc1` (single isomer, unassigned) [Compound 43, 4-hydroxy-1-(4-hydroxycyclohexylmethyl)-1,2,3,4-tetrahydroquinoline-6-sulfonic acid (4-ethylphenyl)isobutylamide], for which the IC50 was in the range of 0.1 to 1 µM. In turn, `CCc1ccc(N(CC(C)C)S(=O)(=O)c2ccc3c(c2)C(O)CCN3C2CCNC(=O)C2)cc1` (single isomer, unassigned) [Compound 52, 4-hydroxy-1-(2-oxopiperidin-4-yl)-1,2,3,4-tetrahydroquinoline-6-sulfonic acid (4-ethylphenyl)isobutylamide] showed an IC50 of over 1 µM.

As for `CCc1ccc(N(CC(C)C)S(=O)(=O)c2ccc3c(c2)C(O)CCN3C2CCNC(=O)C2)cc1` (single isomer, unassigned) [Compound 53, 4-hydroxy-1-(2-oxopiperidin-4-yl)-1,2,3,4-tetrahydroquinoline-6-sulfonic acid (4-ethylphenyl)isobutylamide], the IC50 was over 1 µM. In turn, `CCc1ccc(N(CC(C)C)S(=O)(=O)c2ccc3c(c2)C(=O)CCN3CC2CCC(=O)N2)cc1` (centres unmarked) [Compound 3, 4-oxo-1-(5-oxopyrrolidin-2-ylmethyl)-1,2,3,4-tetrahydroquinoline-6-sulfonic acid (4-ethylphenyl)isobutylamide] gave an IC50 of over 1 µM.

In turn, `CCc1ccc(N(CC(C)C)S(=O)(=O)c2ccc3c(c2)C(=O)CCN3CC2CCN(C(=O)OC(C)(C)C)CC2)cc1` [Compound 5, tert-butyl ester of 4-{6-[(4-ethylphenyl)isobutylsulfamoyl]-4-oxo-3,4-dihydro-2H-quinolin-1-ylmethyl}piperidine-1-carboxylic acid] gave a half-maximal inhibitory concentration (IC50) of over 1 µM. For the molecule `CCc1ccc(N(CC(C)C)S(=O)(=O)c2ccc3c(c2)C(=O)CCN3CC2(C)CCOCC2)cc1` [Compound 6, 1-(4-methyltetrahydropyran-4-ylmethyl)-4-oxo-1,2,3,4-tetrahydroquinoline-6-sulfonic acid (4-ethylphenyl)isobutylamide], the IC50 lay within 0.1 to 1 µM. With `CCc1ccc(N(CC(C)C)S(=O)(=O)c2ccc3c(c2)C(=O)CCN3CC2CCS(=O)(=O)CC2)cc1` [Compound 7, 1-(1,1-dioxohexahydro-1λ^6-thiopyran-4-ylmethyl)-4-oxo-1,2,3,4-tetrahydroquinoline-6-sulfonic acid (4-ethylphenyl)isobutylamide] the figure was over 1 µM; with `CCc1ccc(N(CC(C)C)S(=O)(=O)c2ccc3c(c2)C(=O)CCN3Cc2ccc(C(=O)NO)cc2)cc1` [Compound 8, 4-{6-[(4-ethylphenyl)isobutylsulfamoyl]-4-oxo-3,4-dihydro-2H-quinolin-1-ylmethyl}-N-hydroxybenzamide], over 1 µM. With `CCc1ccc(N(CC(C)C)S(=O)(=O)c2ccc3c(c2)C(O)CCN3CC2CCC(=O)N2)cc1` (centres unmarked) [Compound 9, 4-hydroxy-1-(5-oxopyrrolidin-2-ylmethyl)-1,2,3,4-tetrahydroquinoline-6-sulfonic acid (4-ethylphenyl)isobutylamide] the figure was 0.1 to 1 µM; with `CCc1ccc(N(CC(C)C)S(=O)(=O)c2ccc3c(c2)C(O)CCN3CC2CCN(C(=O)OC(C)(C)C)CC2)cc1` (centres unmarked) [Compound 12, tert-butyl ester of 4-{6-[(4-ethylphenyl)isobutylsulfamoyl]-4-hydroxy-3,4-dihydro-2H-quinolin-1-ylmethyl}piperidine-1-carboxylic acid], over 1 µM; with `CCc1ccc(N(CC(C)C)S(=O)(=O)c2ccc3c(c2)C(O)CCN3C2CCN(C(=O)OC(C)(C)C)CC2)cc1` (centres unmarked) [Compound 13, tert-butyl ester of 4-{6-[(4-ethylphenyl)isobutylsulfamoyl]-4-hydroxy-3,4-dihydro-2H-quinolin-1-yl}piperidine-1-carboxylic acid], over 1 µM. In turn, `CCc1ccc(N(CC(C)C)S(=O)(=O)c2ccc3c(c2)C(O)CCN3CC2(O)CCOCC2)cc1` (centres unmarked) [Compound 16, 4-hydroxy-1-(4-hydroxytetrahydropyran-4-ylmethyl)-1,2,3,4-tetrahydroquinoline-6-sulfonic acid (4-ethylphenyl)isobutylamide] yielded an IC50 of over 1 µM. With `CCc1ccc(N(CC(C)C)S(=O)(=O)c2ccc3c(c2)C(O)CCN3CC2CCS(=O)(=O)CC2)cc1` (centres unmarked) [Compound 17, 1-(1,1-dioxohexahydro-1λ^6-thiopyran-4-ylmethyl)-4-hydroxy-1,2,3,4-tetrahydroquinoline-6-sulfonic acid (4-ethylphenyl)isobutylamide] the figure was over 1 µM; with `CCc1ccc(N(CC(C)C)S(=O)(=O)c2ccc3c(c2)C(O)CCN3CC2COC2)cc1` (centres unmarked) [Compound 18, 4-hydroxy-1-oxetan-3-ylmethyl-1,2,3,4-tetrahydroquinoline-6-sulfonic acid (4-ethylphenyl)isobutylamide], 0.1 to 1 µM; with `CCc1ccc(N(CC(C)C)S(=O)(=O)c2ccc3c(c2)C(O)CCN3Cc2ccncn2)cc1` (centres unmarked) [Compound 21, 4-hydroxy-1-pyrimidin-4-ylmethyl-1,2,3,4-tetrahydroquinoline-6-sulfonic acid (4-ethylphenyl)isobutylamide], under 0.1 µM. Take `CCc1ccc(N(CC(C)C)S(=O)(=O)c2ccc3c(c2)C(O)CCN3CC2CCS(=O)(=O)C2)cc1` (centres unmarked) [Compound 22, 1-(1,1-dioxotetrahydro-1λ^6-thiophen-3-ylmethyl)-4-hydroxy-1,2,3,4-tetrahydroquinoline-6-sulfonic acid (4-ethylphenyl)isobutylamide]: the IC50 lay in the range of 0.1 to 1 µM. With `CCc1ccc(N(CC(C)C)S(=O)(=O)c2ccc3c(c2)C(O)CCN3CC2CNC(=O)O2)cc1` (centres unmarked) [Compound 23, 4-hydroxy-1-(2-oxooxazolidin-5-ylmethyl)-1,2,3,4-tetrahydroquinoline-6-sulfonic acid (4-ethylphenyl)isobutylamide] the figure was 0.1 to 1 µM; with `CCc1ccc(N(CC(C)C)S(=O)(=O)c2ccc3c(c2)C(O)CCN3CC2CCC(=O)NC2)cc1` (centres unmarked) [Compound 24, 4-hydroxy-1-(6-oxopiperidin-3-ylmethyl)-1,2,3,4-tetrahydroquinoline-6-sulfonic acid (4-ethylphenyl)isobutylamide], 0.1 to 1 µM; with `CCc1ccc(N(CC(C)C)S(=O)(=O)c2ccc3c(c2)C(O)CCN3CC2CCNC(=O)C2)cc1` (centres unmarked) [Compound 25, 4-hydroxy-1-(2-oxopiperidin-4-ylmethyl)-1,2,3,4-tetrahydroquinoline-6-sulfonic acid (4-ethylphenyl)isobutylamide], over 1 µM. For `CCc1ccc(N(CC(C)C)S(=O)(=O)c2ccc3c(c2)C(O)CCN3CC2CNC(=O)C2)cc1` (centres unmarked) [Compound 26, 4-hydroxy-1-(5-oxopyrrolidin-3-ylmethyl)-1,2,3,4-tetrahydroquinoline-6-sulfonic acid (4-ethylphenyl)isobutylamide], the IC50 lay in the range of 0.1 to 1 µM. The value for `CCc1ccc(N(CC(C)C)S(=O)(=O)c2ccc3c(c2)C(O)CCN3C2CCS(=O)(=O)CC2)cc1` (centres unmarked) [Compound 27, 1-(1,1-dioxohexahydro-1λ^6-thiopyran-4-yl)-4-hydroxy-1,2,3,4-tetrahydroquinoline-6-sulfonic acid (4-ethylphenyl)isobutylamide] was 0.1 to 1 µM.

`CCc1ccc(N(CC(C)C)S(=O)(=O)c2ccc3c(c2)C(O)CCN3C2CCS(=O)(=O)C2)cc1` (centres unmarked) [Compound 28, 1-(1,1-dioxotetrahydro-1λ^6-thiophen-3-yl)-4-hydroxy-1,2,3,4-tetrahydroquinoline-6-sulfonic acid (4-ethylphenyl)isobutylamide] showed an IC50 of 0.1 to 1 µM. With `CCc1ccc(N(CC(C)C)S(=O)(=O)c2ccc3c(c2)C(O)CCN3Cc2cnoc2C)cc1` (centres unmarked) [Compound 30, 4-hydroxy-1-(5-methylisoxazol-4-ylmethyl)-1,2,3,4-tetrahydroquinoline-6-sulfonic acid (4-ethylphenyl)isobutylamide] the figure was 0.1 to 1 µM. `CCc1ccc(N(CC(C)C)S(=O)(=O)c2ccc3c(c2)C(O)CCN3Cc2c(C)noc2C)cc1` (centres unmarked) [Compound 31, 1-(3,5-dimethylisoxazol-4-ylmethyl)-4-hydroxy-1,2,3,4-tetrahydroquinoline-6-sulfonic acid (4-ethylphenyl)isobutylamide]: the IC50 was 0.1 to 1 µM. `CCc1ccc(N(CC(C)C)S(=O)(=O)c2ccc3c(c2)C(O)CCN3Cc2nonc2C)cc1` (centres unmarked) [Compound 32, 4-hydroxy-1-(4-methylfurazan-3-ylmethyl)-1,2,3,4-tetrahydroquinoline-6-sulfonic acid (4-ethylphenyl)isobutylamide] showed an IC50 of 0.1 to 1 µM.
